Results on twelve molecules are retold here after publication PMC6015499 (Journal of medicinal chemistry, 2017).

Like-named read-outs stand apart in the source and are kept apart here.

Data set [1] in a line: In vivo pharmacokinetics and tissue distribution in mice. On the set-up: species or system male CD-1 mice. To be noted: mouse, single i.p. dose 1 mg/kg.
For another data set, the system named is Huh7.5.1 cells. Put plainly: ATPlite cytotoxicity assay. Format: cell-based.
A short description of data set [2]: ALT level in mouse serum during pharmacokinetics study. Particulars: mouse model. It is filed as in vivo.
A further data set can be described thus: PAMPA permeability. Format: in vitro ADME. On the technique in general: The PAMPA barrier holds no transporters, so it reflects passive diffusion.
Data set [3] in a line: aqueous kinetic solubility. Format: physicochemical. Particulars: phosphate buffer (pH 7.4).

Take `Cc1oc(-c2ccc(Cl)c(Cl)c2)nc1CN1CCC(C(=O)NCCCN2C[C@H](C)C[C@H](C)C2)CC1` [7ii, N-(3-(cis-3,5-Dimethylpiperidin-1-yl)propyl)-1-((2-(3,4-dichlorophenyl)-5-methyloxazol-4-yl)methyl)piperidine-4-carboxamide]: the “liver concentration throughout 24 h post-administration” value in data set [1] was 3.33 to 9.82 µM. The “cytotoxicity in combination (ATPlite)” value with Huh7.5.1 cells is listed as “without significant cytotoxicity”. The “hepatotoxicity indicated by ALT level” value in data set [2] is “without obvious hepatotoxicity”. In addition, the PAMPA permeability in “PAMPA permeability” is listed as 522 1×10^−6 cm/s.
As to “N-(3-(cis-3,5-Dimethylpiperidin-1-yl)propyl)-1-((2-(2-chloro-6-methoxyphenyl)-5-methyloxazol-4-yl)methyl)piperidine-4-carboxamide [7ww]”, in “PAMPA permeability” (PAMPA), the PAMPA permeability was 197.7 1×10^−6 cm/s. Further, in data set [3], the aqueous solubility (commonly the concentration that dissolves in the medium under given conditions) is above 73.0 µg/mL.
On to `Cc1cccc(-c2nc(CN3CCC(C(=O)NCCCN4C[C@H](C)C[C@H](C)C4)CC3)c(C)o2)c1` [7t, N-(3-(cis-3,5-Dimethylpiperidin-1-yl)propyl)-1-((5-methyl-2-(mtolyl)oxazol-4-yl)methyl)piperidine-4-carboxamide], for which the PAMPA permeability in “PAMPA permeability” is 279.1 1×10^−6 cm/s.
As for `CC[C@@H]1C[C@H](CC)CN(CCCNC(=O)C2CCN(Cc3nc(-c4ccccc4C)oc3C)CC2)C1` [7c, N-(3-(cis-3,5-Diethylpiperidin-1-yl)propyl)-1-((5-methyl-2-(otolyl)oxazol-4-yl)methyl)piperidine-4-carboxamide], the PAMPA permeability in “PAMPA permeability” was 1267 1×10^−6 cm/s.
Consider `Cc1ccccc1-c1nc(CN2CCC(C(=O)NCCCN3CCCCC3)CC2)c(C)o1` [7h, N-(3-(Piperidin-1-yl)propyl)-1-((5-methyl-2-(o-tolyl)oxazol-4-yl)-methyl)piperidine-4-carboxamide], for which, in “PAMPA permeability”, the PAMPA permeability was 34.5 1×10^−6 cm/s.
As for `Cc1cccc(Cl)c1-c1nc(CN2CCC(C(=O)NCCCN3C[C@H](C)C[C@H](C)C3)CC2)c(C)o1` [7nn, N-(3-(cis-3,5-Dimethylpiperidin-1-yl)propyl)-1-((2-(2-chloro-6-methylphenyl)-5-methyloxazol-4-yl)methyl)piperidine-4-carboxamide], in “PAMPA permeability”, the PAMPA permeability is 196.3 1×10^−6 cm/s.
With `Cc1oc(-c2ccc(Cl)cc2)nc1CN1CCC(C(=O)NCCCN2C[C@H](C)C[C@H](C)C2)CC1` [7ff, N-(3-(cis-3,5-Dimethylpiperidin-1-yl)propyl)-1-((2-(4-chlorophenyl)-5-methyloxazol-4-yl)methyl)piperidine-4-carboxamide], the PAMPA permeability in “PAMPA permeability” is given as >635.0 1×10^−6 cm/s.
Regarding `Cc1ccccc1-c1nc(CN2CCC(C(=O)NCCCN3C[C@H](C)C[C@@H](C)C3)CC2)c(C)o1` (racemic) [7b, (±)-N-(3-(trans-3,5-Dimethylpiperidin-1-yl)propyl)-1-((5-methyl-2-(o-tolyl)oxazol-4-yl)methyl)piperidine-4-carboxamide], in the data set “PAMPA permeability”, the PAMPA permeability is on record as 553.7 1×10^−6 cm/s.
Take `CC[C@@H]1C[C@H](CC)CN(CCCNC(=O)C2CCN(Cc3nc(-c4c(F)cccc4F)oc3C)CC2)C1` [7kk, N-(3-(cis-3,5-Diethylpiperidin-1-yl)propyl)-1-((2-(2,6-difluorophenyl)-5-methyloxazol-4-yl)methyl)piperidine-4-carboxamide]: in the data set “PAMPA permeability”, the PAMPA permeability is recorded as 129.9 1×10^−6 cm/s.
`COc1ccc(-c2nc(CN3CCC(C(=O)NCCCN4C[C@H](C)C[C@H](C)C4)CC3)c(C)o2)cc1OC` [7yy]: the PAMPA permeability in “PAMPA permeability” is 81.9 1×10^−6 cm/s.
Take `Cc1ccccc1-c1nc(CN2CCC(C(=O)N3CCN(CCN(C)C)CC3)CC2)c(C)o1` [7s, (4-(2-(Dimethylamino)ethyl)piperazin-1-yl)(1-((5-methyl-2-(otolyl)oxazol-4-yl)methyl)piperidin-4-yl)methanone]: in the data set “PAMPA permeability”, the PAMPA permeability is given as 14 1×10^−6 cm/s.
On to `Cc1ccccc1-c1nc(CN2CCC(C(=O)NCCCN3CCC(C(C)C)CC3)CC2)c(C)o1` [7e, N-(3-(4-Isopropylpiperidin-1-yl)propyl)-1-((5-methyl-2-(o-tolyl)-oxazol-4-yl)methyl)piperidine-4-carboxamide], for which, in “PAMPA permeability”, the PAMPA permeability is listed as 395.6 1×10^−6 cm/s.
